# Target: T1, recombinant human SK (Homo sapiens, UniProt Q9NYA1)
# T1 construct: GST (glutathione-S-transferase) (N); made in house; host or cells: bacteria (pGEX bacterial expression vector)
# Experiment: Recombinant human SK activity assay ([3H]sphingosine to [3H]S1P)
# Format: biochemical
# Conditions: Human SK incubated with 6 μg/mL of compound; percentage of SK activity inhibited
# Experimental: SK activity is measured by incubation of the recombinant SK with [^3H]sphingosine and 1 mM ATP under defined conditions, followed by extraction of the assay mixture with chloroform:methanol under basic conditions. […] Radioactivity in aliquots of the aqueous phase is then quantified as a measure of [^3H]S1P formation.
# (§1) Human SK was incubated with 6 μg/mL of the indicated compounds, and then assayed for activity as described above. Values in the column labeled “Recombinant SK (% inhibition)” represent the percentage of SK activity that was inhibited. MDA-MB-231 cells were incubated with 20 μg/mL of the indicated compounds and then assayed for endogenous SK activity as indicated above. Values in the column labeled “Cellular S1P (% inhibition)” represent the percentage of S1P production that was inhibited. Additionally, MDA-MB-231 cells were treated with varying concentration of certain compounds and the amount of S1P produced by the cells was determined. Values in the column labeled “Cellular S1P IC50 (μM)” represent the concentration of compound required to inhibit the production of S1P by 50%. ND=not determined.
# T1 sequence (Q9NYA1 whole entry): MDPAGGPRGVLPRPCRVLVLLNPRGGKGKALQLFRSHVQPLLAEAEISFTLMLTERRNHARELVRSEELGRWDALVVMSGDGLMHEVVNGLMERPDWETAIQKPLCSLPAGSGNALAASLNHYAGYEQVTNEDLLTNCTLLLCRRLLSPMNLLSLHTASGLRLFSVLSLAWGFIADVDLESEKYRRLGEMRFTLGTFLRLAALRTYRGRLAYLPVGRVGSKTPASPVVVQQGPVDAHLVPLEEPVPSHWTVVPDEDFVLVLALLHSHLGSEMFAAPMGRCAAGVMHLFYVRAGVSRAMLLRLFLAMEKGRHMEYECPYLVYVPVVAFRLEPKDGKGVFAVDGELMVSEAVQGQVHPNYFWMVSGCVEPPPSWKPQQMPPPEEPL
Recombinant SK (% inhibition) [%],inhibition at 6 µg/mL [%],Compound
25,,4-(4-Chloro-phenyl)-thiazole-2-carboxylic acid 4-phenoxy benzylamide [B54]
,0,"O=C(NC1CC1)C12CC3CC(C1)CC(c1ccc(Cl)cc1)(C3)C2 [A2, 3-(4-Chloro-phenyl)-adamantane-1-carboxylic acid cyclopropylamide]"
,6,"CCSCCNC(=O)C12CC3CC(C1)CC(c1ccc(Cl)cc1)(C3)C2 [A3, 3-(4-Chloro-phenyl)-adamantane-1-carboxylic acid (2-ethylsulfanyl-ethyl)-amide]"
,19,"CSc1ccc(CNC(=O)C23CC4CC(C2)CC(c2ccc(Cl)cc2)(C4)C3)cc1 [A14, 3-(4-Chloro-phenyl)-adamantane-1-carboxylic acid 4-methylsulfanyl-benzylamide]"
,8,"O=C(NCc1ccc(C(F)(F)F)cc1)C12CC3CC(C1)CC(c1ccc(Cl)cc1)(C3)C2 [A16, 3-(4-Chloro-phenyl)-adamantane-1-carboxylic acid 4-trifluoromethyl-benzylamide]"
,56,"O=C(NCc1cc(C(F)(F)F)cc(C(F)(F)F)c1)C12CC3CC(C1)CC(c1ccc(Cl)cc1)(C3)C2 [A17, 3-(4-Chloro-phenyl)-adamantane-1-carboxylic acid 3,5-bis-trifluoromethyl-benzylamide]"
,0,"O=C(NCc1cc(F)cc(C(F)(F)F)c1)C12CC3CC(C1)CC(c1ccc(Cl)cc1)(C3)C2 [A18, 3-(4-Chloro-phenyl)-adamantane-1-carboxylic acid 3-fluoro-5-trifluoromethyl-benzylamide]"
,0,"O=C(NCc1cc(F)cc(F)c1)C12CC3CC(C1)CC(c1ccc(Cl)cc1)(C3)C2 [A20, 3-(4-Chloro-phenyl)-adamantane-1-carboxylic acid 3,5-difluoro-benzylamide]"
,65,"O=C(NCc1ccc(F)c(F)c1)C12CC3CC(C1)CC(c1ccc(Cl)cc1)(C3)C2 [A21, 3-(4-Chloro-phenyl)-adamantane-1-carboxylic acid 3,4-difluoro-benzylamide]"
,56,"O=C(NCc1cc(F)c(F)c(F)c1)C12CC3CC(C1)CC(c1ccc(Cl)cc1)(C3)C2 [A22, 3-(4-Chloro-phenyl)-adamantane-1-carboxylic acid 3,4,5-trifluoro-benzylamide]"
,0,"O=C(NCc1ccc(F)c(Cl)c1)C12CC3CC(C1)CC(c1ccc(Cl)cc1)(C3)C2 [A23, 3-(4-Chloro-phenyl)-adamantane-1-carboxylic acid 3-chloro-4-fluoro-benzylamide]"
,20,"O=C(NCc1ccc(F)c(C(F)(F)F)c1)C12CC3CC(C1)CC(c1ccc(Cl)cc1)(C3)C2 [A24, 3-(4-Chloro-phenyl)-adamantane-1-carboxylic acid 4-fluoro-3-trifluoromethyl-benzylamide]"
,47,"O=C(NCc1ccc(F)cc1Cl)C12CC3CC(C1)CC(c1ccc(Cl)cc1)(C3)C2 [A25, 3-(4-Chloro-phenyl)-adamantane-1-carboxylic acid 2-chloro-4-fluoro-benzylamide]"
,36,"O=C(NCc1ccc(Cl)c(C(F)(F)F)c1)C12CC3CC(C1)CC(c1ccc(Cl)cc1)(C3)C2 [A26, 3-(4-Chloro-phenyl)-adamantane-1-carboxylic acid 4-chloro-3-trifluoromethyl-benzylamide]"
,50,"NCc1c(Cl)c(Cl)c(Cl)c(CNC(=O)C23CC4CC(C2)CC(c2ccc(Cl)cc2)(C4)C3)c1Cl [A27, 3-(4-Chloro-phenyl)-adamantane-1-carboxylic acid 3-aminomethyl-2,4,5,6-tetrachloro-benzylamide]"
,6,"CC(NC(=O)C12CC3CC(C1)CC(c1ccc(Cl)cc1)(C3)C2)c1ccc(Cl)cc1 (centres unmarked) [A28, 3-(4-Chloro-phenyl)-adamantane-1-carboxylic acid [1-(4-chloro-phenyl)-ethyl]-amide]"
,1,"CS(=O)(=O)c1ccc(CNC(=O)C23CC4CC(C2)CC(c2ccc(Cl)cc2)(C4)C3)cc1 [A30, 3-(4-Chloro-phenyl)-adamantane-1-carboxylic acid 4-methanesulfonyl-benzylamide]"
,74,"CN(C)c1ccc(CNC(=O)C23CC4CC(C2)CC(c2ccc(Cl)cc2)(C4)C3)cc1 [A31, 3-(4-Chloro-phenyl)-adamantane-1-carboxylic acid 4-dimethylamino-benzylamide]"
,17,"O=C(NCc1ccc(OC(F)(F)F)cc1)C12CC3CC(C1)CC(c1ccc(Cl)cc1)(C3)C2 [A32, 3-(4-Chloro-phenyl)-adamantane-1-carboxylic acid 4-trifluoromethoxy-benzylamide]"
,10,"O=C(NCc1cccc(OC(F)(F)F)c1)C12CC3CC(C1)CC(c1ccc(Cl)cc1)(C3)C2 [A33, 3-(4-Chloro-phenyl)-adamantane-1-carboxylic acid 3-trifluoromethoxy-benzylamide]"
0,,"O=C(NCc1ccc(Oc2ccccc2)cc1)C12CC3CC(C1)CC(c1ccc(Cl)cc1)(C3)C2 [A34, 3-(4-Chloro-phenyl)-adamantane-1-carboxylic acid 4-phenoxy-benzylamide]"

# Test system: endogenous SK activity in MDA-MB-231 cells
# Experiment: Cellular S1P production (endogenous SK activity) in MDA-MB-231 cells
# Format: cell-based
# Conditions: Homo sapiens, MDA-MB-231, MDA-MB-231 cells incubated with 20 μg/mL of compound; percentage of S1P production inhibited
# Experimental: as §1
row,Compound,inhibition at 20 µg/mL [%]
1,"CN1CCCC1CCNC(=O)c1nc(-c2ccc(Cl)cc2)cs1 (centres unmarked) [B45, 4-(4-Chloro-phenyl)-thiazole-2-carboxylic acid [2-(1-methyl-pyrrolidin-2-yl)-ethyl]-amide]",0
2,"CN1CCN(NC(=O)c2nc(-c3ccc(Cl)cc3)cs2)CC1 [B46, 4-(4-Chloro-phenyl)-thiazole-2-carboxylic acid (4-methyl-piperazin-1-yl)-amide]",0
3,"Clc1ccc(-c2csc(N(CCCc3ccccc3)CCCc3ccccc3)n2)cc1 [B71, [4-(4-Chloro-phenyl)-thiazol-2-yl]-bis-(3-phenyl-propyl)-amine]",15
4,"Clc1ccc(-c2csc(N(Cc3ccccc3)Cc3ccccc3)n2)cc1 [B72, Dibenzyl-[4-(4-chloro-phenyl)-thiazol-2-yl]-amine]",27
5,"O=C(NCCN1CCOCC1)c1nc(-c2ccc(Cl)cc2)cs1 [B76, 4-(4-Chloro-phenyl)-thiazole-2-carboxylic acid (2-morpholin-4-yl-ethyl)-amide]",81
6,"CN1CCCC1CCNC(=O)c1cccc(-c2ccc(Cl)cc2)c1 (centres unmarked) [B80, 4′-Chloro-biphenyl-3-carboxylic acid [2-(1-methyl-pyrrolidin-2-yl)-ethyl]-amide]",70
7,"O=C(NCc1ccncc1)c1cccc(-c2ccc(Cl)cc2)c1 [B81, 4′-Chloro-biphenyl-3-carboxylic acid (pyridin-4-ylmethyl)-amide]",14
8,"CN1CCC(NC(=O)c2cccc(-c3ccc(Cl)cc3)c2)CC1 [B82, 4′-Chloro-biphenyl-3-carboxylic acid (1-methyl-piperidin-4-yl)-amide]",67
9,"O=C(Nc1ccc(O)cc1)c1cccc(-c2ccc(Cl)cc2)c1 [B83, 4′-Chloro-biphenyl-3-carboxylic acid (4-hydroxy-phenyl)-amide]",55
10,"O=C(NCCc1ccncc1)c1cccc(-c2ccc(Cl)cc2)c1 [B84, 4′-Chloro-biphenyl-3-carboxylic acid (2-pyridin-4-yl-ethyl)-amide]",76
11,"O=C(Nc1nc2cc(Cl)ccc2o1)c1ccccc1[N+](=O)[O-] [B87, N-(5-Chloro-benzooxazol-2-yl)-2-nitro-benzamide]",64
12,"O=C(C=Cc1ccccc1)Nc1nc2cc(Cl)ccc2o1 [B88, N-(5-Chloro-benzooxazol-2-yl)-3-phenyl-acrylamide]",46
13,"O=C(C=Cc1ccc([N+](=O)[O-])cc1)Nc1nc2cc(Cl)ccc2o1 [B89, N-(5-Chloro-benzooxazol-2-yl)-3-(4-nitro-phenyl)-acrylamide]",74
14,"C=CCCCCCCCCC(=O)Nc1nc2cc(Cl)ccc2o1 [B90, Undec-10-enoic acid (5-chloro-benzooxazol-2-yl)-amide]",39
15,"CCCCCCCCCCCCCC(=O)Nc1nc2cc(Cl)ccc2o1 [B91, Tetradecanoic acid (5-chloro-benzooxazol-2-yl)-amide]",0
16,"CCCCCCCCCCCCCCCC(=O)Nc1nc2cc(Cl)ccc2o1 [B92, Hexadecanoic acid (5-chloro-benzooxazol-2-yl)-amide]",4
17,"O=C(Nc1ccc(Cl)c(C(F)(F)F)c1)Nc1nc2cc(Cl)ccc2o1 [B93, 1-(5-Chloro-benzooxazol-2-yl)-3-(4-chloro-3-trifluoromethyl-phenyl)-urea]",53
18,"O=C(Nc1ccc(Cl)c(C(F)(F)F)c1)Nc1nc2ccccc2s1 [B94, 1-Benzothiazol-2-yl-3-(4-chloro-3-trifluoromethyl-phenyl)-urea]",13
19,"O=C(Nc1nc2cc(Cl)ccc2s1)c1ccccc1O [B96, N-(5-Chloro-benzothiazol-2-yl)-2-hydroxy-benzamide]",18
20,"O=C(Nc1nc2cc(Cl)ccc2o1)c1cccc(F)c1 [B97, N-(5-Chloro-benzooxazol-2-yl)-3-fluoro-benzamide]",38

# Same assay, conditions: Homo sapiens; MDA-MB-231 cells, varying concentrations; concentration inhibiting S1P production by 50%
row,IC50 [µM],Compound
1,5,"O=C(NCCN1CCOCC1)c1nc(-c2ccc(Cl)cc2)cs1 [B76, 4-(4-Chloro-phenyl)-thiazole-2-carboxylic acid (2-morpholin-4-yl-ethyl)-amide]"
2,22,"O=C(Nc1nc2cc(Cl)ccc2o1)c1ccccc1[N+](=O)[O-] [B87, N-(5-Chloro-benzooxazol-2-yl)-2-nitro-benzamide]"
3,5.8,"O=C(C=Cc1ccc([N+](=O)[O-])cc1)Nc1nc2cc(Cl)ccc2o1 [B89, N-(5-Chloro-benzooxazol-2-yl)-3-(4-nitro-phenyl)-acrylamide]"

# Reference: US20120122870A1, “Treatment Of Ischemia-Reperfusion Injury” (MUSC FOUNDATION FOR RESEARCH DEVELOPMENT, priority 2009, published 2012)
